This series deals with human maximum recommended daily dose, FDA database. In words: DSSTox (FDAMDD) FDA Maximum (Recommended) Daily Dose Database. The note with it: hits give low values. Summed up:
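MRDD values come from clinical trials with daily oral dosing, usually for 3–12 months, for the average adult, in mg/day converted to mg/kg-bw/day assuming 60 kg. Antineoplastic mg/m2 doses are divided by 37. Activity score maps log10(1/MRDD mmol) onto 1–100.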

[1] abbreviates: TherapeuticCategory: diagnostic aid.
The mark [2] stands for this setting: TherapeuticCategory: antibacterial.
Where [3] appears, read: TherapeuticCategory: diuretic, antihypertensive.
[4] abbreviates: TherapeuticCategory: antidepressant.
The mark [5] stands for this setting: TherapeuticCategory: anticonvulsant.
Setting [6] is: TherapeuticCategory: antihypertensive.
The mark [7] stands for this setting: TherapeuticCategory: expectorant.

With `CCCOC(=O)Cn1cc(I)c(=O)c(I)c1`, the maximum recommended daily dose (mmol/kg-bw/day) under setting [1] was 0.224.
Regarding `C[N+](C)(C)CCOC(=O)CCC(=O)OCC[N+](C)(C)C`, for the setting “TherapeuticCategory: skeletal muscle relaxant”, the maximum recommended daily dose (mmol/kg-bw/day) was 0.00304.
`CO/N=C(/C(=O)N[C@@H]1C(=O)N2C(C(=O)O)=C(COC(N)=O)CS[C@H]12)c1ccco1`: the maximum recommended daily dose (mmol/kg-bw/day) under setting [2] was 0.0394.
With `CC(=O)[C@H]1CC[C@H]2[C@@H]3CC[C@H]4C[C@H](O)CC[C@]4(C)[C@H]3C(=O)C[C@]12C`, for the setting “TherapeuticCategory: anesthetic”, the maximum recommended daily dose (mmol/kg-bw/day) is 0.00203.
In the case of `CC(=O)O[C@H]1CC[C@@]2(C)C(=CC[C@@H]3[C@@H]2CC[C@]2(C)C(=O)CC[C@@H]32)C1`, where the note is “TherapeuticCategory: androgen”, the maximum recommended daily dose (mmol/kg-bw/day) was 0.0101.
Turning to `CCN(C)C(=O)Oc1cccc([C@H](C)N(C)C)c1`, the maximum recommended daily dose (mmol/kg-bw/day) (TherapeuticCategory: cholinesterase inhibitor) is 0.000799.
As for `NC12CC3CC(CC(C3)C1)C2`, the maximum recommended daily dose (mmol/kg-bw/day) (TherapeuticCategory: antiviral, antiparkinsonian) is 0.0441.
In the case of `NS(=O)(=O)c1cc2c(cc1Cl)NC(C1CC3C=CC1C3)NS2(=O)=O` (centres undefined), under setting [3], the maximum recommended daily dose (mmol/kg-bw/day) was 0.000256.
Regarding `C[N+](C)(C)CC(=O)[O-]`, the maximum recommended daily dose (mmol/kg-bw/day) (TherapeuticCategory: hepatoprotectant) was 0.0711.
With `CNC(C)CCC=C(C)C` (centres undefined), the maximum recommended daily dose (mmol/kg-bw/day) (TherapeuticCategory: adrenergic, bronchodilator, mydriatic, antiglaucoma) was 0.0384.
For `CC1CC(OC(=O)C(O)c2ccccc2)CC(C)(C)C1` (centres undefined), the maximum recommended daily dose (mmol/kg-bw/day) (TherapeuticCategory: vasodilator) is 0.0966.
On to `CC(=O)Nc1nnc(S(N)(=O)=O)s1`, for which the maximum recommended daily dose (mmol/kg-bw/day) (TherapeuticCategory: carbonic anhydrase inhibitor, diuretic) was 0.0751.
Take `CO[C@@H]1[C@@H](O[C@@H]2O[C@H](C)[C@@H](O[C@H]3C[C@@](C)(O)[C@@H](O)[C@H](C)O3)[C@H](N(C)C)[C@H]2O)[C@@H](CC=O)C[C@@H](C)[C@@H](O[C@@H]2CC[C@H](N(C)C)[C@@H](C)O2)/C=C/C=C/C[C@@H](C)OC(=O)C[C@H]1OC(C)=O`: the maximum recommended daily dose (mmol/kg-bw/day) under setting [2] was 0.0754.
As for `CN1CCC(=C2c3ccccc3CCc3sccc32)CC1`, where the note is “TherapeuticCategory: anabolic, antidepressant, serotonin inhibitor”, the maximum recommended daily dose (mmol/kg-bw/day) is 0.000169.
Turning to `CC1=C(C/C=C(\C)CCC[C@H](C)CCC[C@H](C)CCCC(C)C)C(=O)c2ccccc2C1=O`, the maximum recommended daily dose (mmol/kg-bw/day) (TherapeuticCategory: prothrombogenic vitamin) is 0.000925.
As for `C[C@H]1O[C@@H](O[C@H]2[C@@H](O)C[C@H](O[C@H]3[C@@H](O)C[C@H](O[C@H]4CC[C@@]5(C)[C@H](CC[C@@H]6[C@@H]5C[C@@H](O)[C@]5(C)[C@@H](C7=CC(=O)OC7)CC[C@]65O)C4)O[C@@H]3C)O[C@@H]2C)C[C@H](O)[C@@H]1O`, the maximum recommended daily dose (mmol/kg-bw/day) (TherapeuticCategory: cardiotonic) is 1.28e-08.
`CC[C@H]1OC(=O)[C@H](C)[C@@H](O[C@H]2C[C@@](C)(OC)[C@@H](O)[C@H](C)O2)[C@H](C)[C@@H](O[C@@H]2O[C@H](C)C[C@H](N(C)C)[C@H]2O)[C@](C)(O)C[C@@H](C)C(=O)[C@H](C)[C@@H](O)[C@]1(C)O`: the maximum recommended daily dose (mmol/kg-bw/day) under setting [2] was 0.0909.
As to `CNC(C)CC1CCCCC1` (centres undefined), the maximum recommended daily dose (mmol/kg-bw/day) (TherapeuticCategory: andrenergic, nasal decongestant) is 0.0161.
Consider `CC(=O)Nc1ccc(O)cc1`, for which, where the note is “TherapeuticCategory: analgesic, antipyretic”, the maximum recommended daily dose (mmol/kg-bw/day) is 0.331.
As to `CC(=O)O[C@]1(C(C)=O)CC[C@H]2[C@@H]3C=C(Cl)C4=CC(=O)CC[C@]4(C)[C@H]3CC[C@@]21C`, the maximum recommended daily dose (mmol/kg-bw/day) (TherapeuticCategory: progestogen, antineoplastic) is 8.22e-05.
Consider `C[C@H](CCC(=O)O)[C@H]1CC[C@H]2[C@@H]3[C@@H](O)C[C@@H]4C[C@H](O)CC[C@]4(C)[C@H]3CC[C@]12C`, for which, where the note is “TherapeuticCategory: anticholelithogenic”, the maximum recommended daily dose (mmol/kg-bw/day) is 0.0255.
On to `COCCOC(=O)C1=C(C)NC(C)=C(C(=O)OC(C)C)C1c1cccc([N+](=O)[O-])c1` (centres undefined), for which the maximum recommended daily dose (mmol/kg-bw/day) (TherapeuticCategory: cerebral vasodilator) is 0.0143.
For `O=C(O)COc1ccc(C(=O)c2cccs2)c(Cl)c1Cl`, under “TherapeuticCategory: diuretic, uricosuric, antihypertensive”, the maximum recommended daily dose (mmol/kg-bw/day) was 0.0252.
With `CC#C[C@]1(O)CC[C@H]2[C@@H]3CCC4=CC(=O)CCC4=C3[C@@H](c3ccc(N(C)C)cc3)C[C@@]21C`, the maximum recommended daily dose (mmol/kg-bw/day) (TherapeuticCategory: abortifacient) was 0.0233.
Take `CN(C)CCCC1(c2ccc(F)cc2)OCc2cc(C#N)ccc21` (centres undefined): under setting [4], the maximum recommended daily dose (mmol/kg-bw/day) is 0.00308.
Consider `CC(C)NCC(O)COc1ccc(CCOCC2CC2)cc1` (centres undefined), for which the maximum recommended daily dose (mmol/kg-bw/day) (TherapeuticCategory: antihypertensive, antiglaucomic) is 0.00217.
As for `CC(C)c1ccc2oc3nc(N)c(C(=O)O)cc3c(=O)c2c1`, the maximum recommended daily dose (mmol/kg-bw/day) (TherapeuticCategory: antiallergic, antiasthmatic) was 0.00838.
For the compound `CCC1(c2ccccc2)C(=O)NCNC1=O`, the maximum recommended daily dose (mmol/kg-bw/day) under setting [5] is 0.0382.
Turning to `NC(=O)OCC(O)COc1ccc(Cl)cc1` (centres undefined), the maximum recommended daily dose (mmol/kg-bw/day) (TherapeuticCategory: topical antifungal) is 0.163.
`O=C1C(CCS(=O)c2ccccc2)C(=O)N(c2ccccc2)N1c1ccccc1` (centres undefined): for the setting “TherapeuticCategory: uricosuric”, the maximum recommended daily dose (mmol/kg-bw/day) was 0.0329.
For the compound `NNc1nnc(NN)c2ccccc12`, the maximum recommended daily dose (mmol/kg-bw/day) under setting [6] is 0.0175.
As to `CC[C@H]1OC(=O)[C@H](C)[C@@H](O[C@H]2C[C@@](C)(OC)[C@@H](O)[C@H](C)O2)C(C)[C@@H](O[C@@H]2O[C@H](C)C[C@H](N(C)C)[C@H]2O)[C@](C)(OC)C[C@@H](C)C(=O)[C@H](C)[C@@H](O)[C@]1(C)O` (some centres undefined), under setting [2], the maximum recommended daily dose (mmol/kg-bw/day) is 0.0111.
Consider `Cc1cc2nc3c(=O)[nH]c(=O)nc-3n(C[C@H](O)[C@H](O)[C@H](O)COP(=O)(O)O)c2cc1C`, for which, where the note is “TherapeuticCategory: enzyme cofactor vitamin”, the maximum recommended daily dose (mmol/kg-bw/day) was 0.0011.
As to `CCc1cc(C(N)=S)ccn1`, the maximum recommended daily dose (mmol/kg-bw/day) under setting [2] was 0.1.
Regarding `CN(C)[C@@H]1C(=O)C(C(N)=O)=C(O)[C@@]2(O)C(=O)C3=C(O)c4c(O)cccc4[C@@](C)(O)[C@H]3C[C@@H]12`, for the setting “TherapeuticCategory: antiamebic, antibacterial, antirickettsial”, the maximum recommended daily dose (mmol/kg-bw/day) was 0.0749.
For `COc1cc(C(=O)NS(=O)(=O)c2ccccc2C)ccc1Cc1cn(C)c2ccc(NC(=O)OC3CCCC3)cc12`, for the setting “TherapeuticCategory: antiasthmatic”, the maximum recommended daily dose (mmol/kg-bw/day) was 0.00116.
In the case of `C#C[C@]1(O)CC[C@H]2[C@@H]3CCC4=CC(=O)CCC4=C3C=C[C@@]21CC`, under “TherapeuticCategory: antigonadotropin”, the maximum recommended daily dose (mmol/kg-bw/day) was 0.000135.
For the compound `Nc1c(Br)cc(Br)cc1CNC1CCC(O)CC1` (centres undefined), under setting [7], the maximum recommended daily dose (mmol/kg-bw/day) was 0.00529.
With `CC(C)CC1Nc2cc(Cl)c(S(N)(=O)=O)cc2S(=O)(=O)N1` (centres undefined), the maximum recommended daily dose (mmol/kg-bw/day) under setting [3] was 0.000707.
As for `CC(C)(Oc1ccc(Cl)cc1)C(=O)NC(=O)NCN1CCOCC1`, the maximum recommended daily dose (mmol/kg-bw/day) (TherapeuticCategory: antithrombotic) is 0.112.
For the compound `CN(C)[C@@H]1C(=O)C(C(=O)NCN2CCCC2)=C(O)[C@@]2(O)C(=O)C3=C(O)c4c(O)cccc4[C@@](C)(O)C3C[C@@H]12` (some centres undefined), the maximum recommended daily dose (mmol/kg-bw/day) under setting [2] is 0.0111.
In the case of `O=C(O)C(O)c1ccccc1` (centres undefined), the maximum recommended daily dose (mmol/kg-bw/day) (TherapeuticCategory: urinary antiseptic) was 0.438.
As for `OCCN(CCO)c1nc(-c2ccccc2)c(-c2ccccc2)o1`, under “TherapeuticCategory: anti inflammatory”, the maximum recommended daily dose (mmol/kg-bw/day) is 0.0617.
As for `CN1CCC2=C(C1)C(c1ccccc1)c1ccccc12` (centres undefined), where the note is “TherapeuticCategory: antihistaminic”, the maximum recommended daily dose (mmol/kg-bw/day) is 0.00957.
Regarding `O=C(O)Cn1cc(I)c(=O)c(I)c1`, the maximum recommended daily dose (mmol/kg-bw/day) under setting [1] was 0.196.
With `CCC(c1ccc2cc(OC)ccc2c1)C(C)(C)C(=O)O` (centres undefined), under “TherapeuticCategory: estrogen”, the maximum recommended daily dose (mmol/kg-bw/day) is 0.000524.
Regarding `Cn1c(=O)c2c(ncn2CCO)n(C)c1=O`, the maximum recommended daily dose (mmol/kg-bw/day) (TherapeuticCategory: bronchodilator) was 0.0372.
In the case of `O=C(O)c1cccnc1`, under “TherapeuticCategory: vitamin”, the maximum recommended daily dose (mmol/kg-bw/day) was 0.102.
For `COc1ccccc1O`, the maximum recommended daily dose (mmol/kg-bw/day) under setting [7] is 0.0902.
As for `N[C@@H](CC(=O)O)C(=O)O`, under “TherapeuticCategory: roborant”, the maximum recommended daily dose (mmol/kg-bw/day) is 0.751.
Regarding `CCC(C)C(C)(COC(N)=O)COC(N)=O` (centres undefined), the maximum recommended daily dose (mmol/kg-bw/day) under setting [6] was 0.0861.
Regarding `CS(=O)(=O)c1ccc([C@@H](O)[C@@H](COC(=O)CN)NC(=O)C(Cl)Cl)cc1`, the maximum recommended daily dose (mmol/kg-bw/day) under setting [2] was 0.111.
`NCCc1cnc[nH]1`: the maximum recommended daily dose (mmol/kg-bw/day) (TherapeuticCategory: gastrointestinal) was 0.00013.
`Clc1ccc2c(c1)C(N1CCNCC1)=Nc1ccccc1O2`: the maximum recommended daily dose (mmol/kg-bw/day) under setting [4] is 0.0319.
Turning to `CO[C@H]1C[C@H](O[C@H]2[C@H](C)[C@@H](O[C@@H]3O[C@H](C)C[C@H](N(C)C)[C@H]3O)[C@@H](C)C[C@]3(CO3)C(=O)[C@H](C)[C@@H](O)[C@@H](C)[C@@H](C)OC(=O)[C@@H]2C)O[C@@H](C)[C@@H]1O`, the maximum recommended daily dose (mmol/kg-bw/day) under setting [2] was 0.0484.
For `CN1C(=O)CC(c2ccccc2)C1=O` (centres undefined), under setting [5], the maximum recommended daily dose (mmol/kg-bw/day) was 0.264.
Regarding `CCOC(=O)[C@]1(c2ccccc2)CCC=C[C@H]1N(C)C`, the maximum recommended daily dose (mmol/kg-bw/day) (TherapeuticCategory: narcotic analgesic) is 0.0122.
Turning to `CN(C)c1nc(N(C)C)nc(N(C)C)n1`, the maximum recommended daily dose (mmol/kg-bw/day) (TherapeuticCategory: antineoplastic) was 0.0257.
As for `CC(=O)Nc1c(I)c(NC(C)=O)c(I)c(C(=O)O)c1I`, under setting [1], the maximum recommended daily dose (mmol/kg-bw/day) is 0.761.
Consider `CN[C@@H]1[C@@H](O)[C@@H](O[C@@H]2[C@@H](O)[C@H](OC3OC(CN)=CCC3N)[C@@H](N)C[C@H]2N)OC[C@]1(C)O` (some centres undefined), for which the maximum recommended daily dose (mmol/kg-bw/day) under setting [2] was 0.0067.
For the compound `COc1ccc2c3c1O[C@H]1[C@@H](O)CC[C@H]4[C@@H](C2)N(C)CC[C@@]341`, the maximum recommended daily dose (mmol/kg-bw/day) (TherapeuticCategory: narcotic analgesic, antitussive) was 0.0106.
In the case of `CCOC(=O)C1=C(COCCN)NC(C)=C(C(=O)OC)C1c1ccccc1Cl` (centres undefined), the maximum recommended daily dose (mmol/kg-bw/day) (TherapeuticCategory: antianginal, antihypertensive) is 0.000408.
For `CCCN(CC)C(CC)C(=O)Nc1c(C)cccc1C` (centres undefined), where the note is “TherapeuticCategory: local anesthetic”, the maximum recommended daily dose (mmol/kg-bw/day) is 0.0241.
With `CCN(CC)C(=S)S`, the maximum recommended daily dose (mmol/kg-bw/day) (TherapeuticCategory: immunomodulator, chelating agent) is 0.0584.

Source of the values: PubChem BioAssay AID1195 (EPA DSSTox, 2008).
